≈ marks a conversion by molar mass, not a printed value.
Tests used:
E. faecalis VSE 1 = assay: MIC, broth microdilution, vancomycin-sensitive E. faecalis (VSE 1); type: cell-based, Enterococcus faecalis; details: for MIC: Enterococcus faecalis VSE 1 (vancomycin-sensitive), read-out: MIC; for MIC-fold improvement vs. vancomycin: VSE 1, ratio of MIC of vancomycin and MIC of analogue
Outline: (§1)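 CLSI broth microdilution; water and uninoculated-broth controls; one arm supplemented with vancomycin, final 10 μM, given with analogue or control antibiotic.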

E. faecalis VRE 6 = assay: MIC, broth microdilution, vancomycin-resistant E. faecalis VRE 6 (VanA); type: cell-based, Enterococcus faecalis; details: for MIC: Enterococcus faecalis VRE 6 (vancomycin-resistant), read-out: MIC; for MIC-fold improvement vs. vancomycin: VRE 6, ratio of MIC of vancomycin and MIC of analogue
Outline: as §1

E. faecalis VRE 53 = assay: MIC, broth microdilution, vancomycin-resistant E. faecalis VRE 53 (VanA); type: cell-based, Enterococcus faecalis; details: for MIC: Enterococcus faecalis VRE 53 (vancomycin-resistant), read-out: MIC; for MIC-fold improvement vs. vancomycin: VRE 53, ratio of MIC of vancomycin and MIC of analogue
Outline: as §1

E. faecalis VRE 29 = assay: MIC, broth microdilution, vancomycin-resistant E. faecalis VRE 29 (VanA); type: cell-based, Enterococcus faecalis; details: for MIC: Enterococcus faecalis VRE 29 (vancomycin-resistant), read-out: MIC; for MIC-fold improvement vs. vancomycin: VRE 29, ratio of MIC of vancomycin and MIC of analogue
Outline: as §1

E. faecalis VRE 37 = assay: MIC, broth microdilution, vancomycin-resistant E. faecalis VRE 37 (VanA); type: cell-based, Enterococcus faecalis; details: for MIC: Enterococcus faecalis VRE 37 (vancomycin-resistant), read-out: MIC
Outline: as §1

[1] = test system: Murine leukemia (L1210) cells; assay: Cytostatic activity, L1210 cell proliferation; type: cell-based; details: mean ± SD of three experiments; highest concentration tested 250 µM; 2 days; read-out: Toxicity (IC50) L1210
Outline: (§2)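 Test compounds, serially diluted, received an equal volume of cell suspension at 300,000–500,000 cells/mL. After 37°C incubation (2 days for L1210, 3 for CEM, 4 for HeLa), cells were enumerated by Coulter counting and 50%-inhibitory concentrations calculated per cell type.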

[2] = test system: human T-lymphocyte (CEM) cells; assay: Cytostatic activity, CEM cell proliferation; type: cell-based; details: mean ± SD of three experiments; highest concentration tested 250 µM; 3 days; read-out: Toxicity (IC50) CEM
Outline: as §2

[3] = test system: human cervix carcinoma (HeLa) cells; assay: Cytostatic activity, HeLa cell proliferation; type: cell-based; details: mean ± SD of three experiments; highest concentration tested 250 µM; 4 days; read-out: Toxicity (IC50) HeLa
Outline: as §2

[4] = test system: L1210, CEM and HeLa cell lines; assay: Cytostatic activity, average or summary over L1210, CEM and HeLa; type: cell-based; details: average of L1210, CEM and HeLa; read-out: Toxicity (IC50) Average
Outline: as §2

[5] = test system: S. aureus VSSA (ATCC 6538); assay: MIC, broth microdilution, vancomycin-sensitive S. aureus (VSSA/MSSA, ATCC 6538); type: cell-based, Staphylococcus aureus; details: for MIC: Staphylococcus aureus VSSA, read-out: MIC; for MIC-fold improvement vs. vancomycin: VSSA, ratio of MIC of vancomycin and MIC of analogue
Outline: as §1

S. aureus VISA/HIP5827 = assay: MIC, broth microdilution, vancomycin-intermediate S. aureus VISA HIP5827; type: cell-based, Staphylococcus aureus; details: for MIC: Staphylococcus aureus VISA/HIP5827, read-out: MIC; for MIC-fold improvement vs. vancomycin: VISA/HIP5827, ratio of MIC of vancomycin and MIC of analogue
Outline: as §1

S. aureus VRSA = assay: MIC, broth microdilution, vancomycin-resistant S. aureus (VRSA); type: cell-based, Staphylococcus aureus; details: for MIC: Staphylococcus aureus VRSA, read-out: MIC; for MIC-fold improvement vs. vancomycin: VRSA, ratio of MIC of vancomycin and MIC of analogue
Outline: as §1

MRSA KS2 = assay: MIC, broth microdilution, MRSA KS2; type: cell-based, Staphylococcus aureus; details: for MIC-fold improvement vs. vancomycin: MRSA KS2, ratio of MIC of vancomycin and MIC of analogue; for MIC: Staphylococcus aureus MRSA KS2, read-out: MIC
Outline: as §1

MRSA KS6 = assay: MIC, broth microdilution, MRSA KS6; type: cell-based, Staphylococcus aureus; details: for MIC-fold improvement vs. vancomycin: MRSA KS6, ratio of MIC of vancomycin and MIC of analogue; for MIC: Staphylococcus aureus MRSA KS6, read-out: MIC
Outline: as §1

MRSA KS89 = assay: MIC, broth microdilution, MRSA KS89; type: cell-based, Staphylococcus aureus; details: for MIC-fold improvement vs. vancomycin: MRSA KS8, ratio of MIC of vancomycin and MIC of analogue; for MIC: Staphylococcus aureus MRSA KS8, read-out: MIC
Outline: as §1

MRSA KS1 = assay: MIC, broth microdilution, MRSA KS1; type: cell-based, Staphylococcus aureus; details: for MIC-fold improvement vs. vancomycin: MRSA KS1, ratio of MIC of vancomycin and MIC of analogue; for MIC: Staphylococcus aureus MRSA KS1, read-out: MIC
Outline: as §1

Row | SMILES | MIC (E. faecalis VSE 1) | MIC-fold improvement vs. vancomycin (E. faecalis VSE 1) | MIC (E. faecalis VRE 6) | MIC-fold improvement vs. vancomycin (E. faecalis VRE 6) | MIC (E. faecalis VRE 53) | MIC-fold improvement vs. vancomycin (E. faecalis VRE 53) | MIC (E. faecalis VRE 29) | MIC-fold improvement vs. vancomycin (E. faecalis VRE 29) | MIC (E. faecalis VRE 37) | IC50 [1] | IC50 [2] | IC50 [3] | IC50 [4] | MIC [5] | MIC-fold improvement vs. vancomycin [5] | MIC (S. aureus VISA/HIP5827) | MIC-fold improvement vs. vancomycin (S. aureus VISA/HIP5827) | MIC (S. aureus VRSA) | MIC-fold improvement vs. vancomycin (S. aureus VRSA) | MIC-fold improvement vs. vancomycin (MRSA KS2) | also measured
1 | CN[C@H](CC(C)C)C(=O)N[C@H]1C(=O)N[C@@H](CC(N)=O)C(=O)N[C@H]2C(=O)N[C@H]3C(=O)N[C@H](C(=O)N[C@H](C(=O)NCC(=O)Nc4c(C)cc(C)cc4C)c4cc(O)cc(O)c4-c4cc3ccc4O)[C@H](O)c3ccc(c(Cl)c3)Oc3cc2cc(c3O[C@@H]2O[C@H](CO)[C@@H](O)[C@H](O)[C@H]2O[C@H]2C[C@](C)(N)[C@H](O)[C@H](C)O2)Oc2ccc(cc2Cl)[C@H]1O [Vanc-9] | 0.78 µM (≈ 1.27 µg/mL) | 2 | 6.25 µM (≈ 10.1 µg/mL) | 32 | 25 µM (≈ 40.6 µg/mL) | 16 | 25 µM (≈ 40.6 µg/mL) | 16 | 25 µM (≈ 40.6 µg/mL) | > 250 µM | 240 ± 14 µM | 83 ± 5 µM | 191 µM | 0.78 µM (≈ 1.27 µg/mL) | 1 | 1.56 µM (≈ 2.53 µg/mL) | 4 | 25 µM (≈ 40.6 µg/mL) | 4 | 1 | MIC (MRSA KS2): 0.78 µM (≈ 1.27 µg/mL); MIC-fold improvement vs. vancomycin (MRSA KS6): 1; MIC (MRSA KS6): 0.78 µM (≈ 1.27 µg/mL); MIC-fold improvement vs. vancomycin (MRSA KS89): 1; MIC (MRSA KS89): 0.78 µM (≈ 1.27 µg/mL); MIC-fold improvement vs. vancomycin (MRSA KS1): 1; MIC (MRSA KS1): 0.78 µM (≈ 1.27 µg/mL)
2 | CNC(CC(C)C)C(=O)NC1C(=O)NC(CC(N)=O)C(=O)NC2C(=O)NC3C(=O)NC(C(=O)NC(C(=O)NCC(=O)Nc4ccc(-c5ccc(Cl)cc5)cc4)c4cc(O)cc(O)c4-c4cc3ccc4O)C(O)c3ccc(c(Cl)c3)Oc3cc2cc(c3OC2OC(CO)C(O)C(O)C2OC2CC(C)(N)C(O)C(C)O2)Oc2ccc(cc2Cl)C1O (stereo not shown) [Vanc-84] | ≤0.05 µM | ≥32 | 0.78 µM (≈ 1.32 µg/mL) | 256 | 3.13 µM (≈ 5.3 µg/mL) | 128 | 0.78 µM (≈ 1.32 µg/mL) | 512 | 3.13 µM (≈ 5.3 µg/mL) | 1.5 ± 0.1 µM | 1.6 ± 0.9 µM | 13 µM | 5 µM | 0.10 µM (≈ 0.169 µg/mL) | 8 | 0.39 µM (≈ 0.66 µg/mL) | 16 | 0.78 µM (≈ 1.32 µg/mL) | 128 | 8 | MIC-fold improvement vs. vancomycin (E. faecalis VRE 37; VRE 37, ratio of MIC of vancomycin and MIC of analogue): 128; MIC (MRSA KS2): 0.10 µM (≈ 0.169 µg/mL); MIC-fold improvement vs. vancomycin (MRSA KS6): 4; MIC (MRSA KS6): 0.20 µM (≈ 0.338 µg/mL); MIC-fold improvement vs. vancomycin (MRSA KS89): 4; MIC (MRSA KS89): 0.20 µM (≈ 0.338 µg/mL); MIC-fold improvement vs. vancomycin (MRSA KS1): 8; MIC (MRSA KS1): 0.10 µM (≈ 0.169 µg/mL)
